Measured values reported in article PMC11555231 (Nature Communications, 2024).
Like-named read-outs stand apart in the source and are kept apart here. Bridge positions count the residues as written; N and C are the ends. Square brackets hold non-standard residues; d marks the D form. Peptide text beside a SMILES is read from it. Cit = NC(=O)NCCC[C@H](N)C(=O)O

What was measured:
[1] = tested on: human neutrophils; assay: Ca-ionophore stimulated neutrophils, citrullinated H3 immunostaining and confocal microscopy / immunoblot; type: cell-based; details: sheet Figure_3G, Ca-I + peptide
Procedure: (§1) Peripheral venous blood was isolated from consenting healthy adult volunteers in heparin tubes as previously described. Briefly, blood samples were on Histopaque 1119 (Sigma-Aldrich) and then centrifuged for 20 min at 800 × g. The plasma was collected and centrifuged for a second time for 20 min at 800 × g. The neutrophil layer was collected and washed in Hyclone Hank’s Balanced Salt Solution (HBSS) -Ca, -Mg, -Phenol red (GE Healthcare) supplemented with 10 mM HEPES (Invitrogen) 0.1% FBS and further purified with a discontinuous Percoll (GE Healthcare) gradient consisting of layers with densities of 85, 80, 75, 70 and 65% and centrifuged for 20 min at 800 × g. Neutrophil-enriched layers were then collected and washed, and neutrophil purity was assessed using flow cytometry.
About 5 × 10^4 sorted neutrophils were seeded in 24-well cell culture plates containing glass coverslips in HyClone HBSS +Ca, +Mg, - Phenol red (GE Healthcare) supplemented with 10 mM HEPES (Invitrogen). Neutrophils were stimulated with 5 µM Ca-Ionophore (Sigma) and fixed for 20 min at room temperature with 2% paraformaldehyde at RT. Cells were then washed and permeabilized with 0.5% Triton X-100 in PBS. Non-specific binding was blocked with 2% BSA (Sigma) and 2% donkey serum (Sigma) in PBS. Samples were stained with DAPI (Life Technologies), the rabbit anti-CitH3 (Abcam; ab5103 1:500) and donkey anti-rabbit alexa488 (Invitrogen; A21206). Fluorescence imaging was performed on a Leica TCS SP8 inverted confocal microscope using sequential scan in between frames mode with a 20x objective.
Neutrophil samples were boiled in a sodium dodecyl sulphate (SDS) buffer containing dithiothreitol (DTT) and run on a polyacrylamide gel electrophoresis (SDS-PAGE) using Criterion TGX precast gels (Any-KD; Bio-Rad Laboratories). Proteins were then transferred to a PVDF membrane (Bio-Rad Laboratories) via semi-dry transfer. The membrane was blocked with 5% BSA (Fisher Scientific) in Tris-buffered saline with 0.1% Tween-20 (TBS-T). Levels of citrullinated histone H3, total H3 and myeloperoxidase (MPO) were assessed by incubating membranes in either anti-histone H3 citrulline R2 + R8 + R17 (Abcam; ab5103 1:1000), anti-histone H3 (Millipore; 07-690 1:10000) or anti-MPO (DAKO; A0398 1:2500) overnight at 4 °C, respectively. For cell lysate-based assays and pull-down assays, membranes were incubated as above with anti-hPADI4 (Abcam; ab50332; 1:1000 in 5% BSA/TBS-T), anti-Bcr (Cell Signalling #3902S; 1:1000 in 3% milk/TBS-T) and anti-Impdh2 (Cell Signalling #57068S; 1:1000 in 3% milk/TBS-T). Membranes were washed in 0.1% TBS-T and subsequently incubated with goat anti-rabbit HRP or anti-goat (Fisher Scientific) for 1 h, followed by final washes in 0.1% TBS-T. Membranes were imaged with enhanced chemiluminescent substrate (ECL) (Thermo Fisher) on a Bio-Rad imager.

[2] = target: T1, Bio-hPADI4 wt (Homo sapiens, UniProt Q9UM07); assay: Surface plasmon resonance (SPR), single cycle kinetics, peptide binding to immobilised PADI4
T1 construct: PADI4 (residues 1–663); Avi-Tag (biotinylated by BirA); made in house; host or cells: E. coli BL21-DE3 co-expressing BirA
T1 sequence (Q9UM07 whole entry, the tested form may be a part): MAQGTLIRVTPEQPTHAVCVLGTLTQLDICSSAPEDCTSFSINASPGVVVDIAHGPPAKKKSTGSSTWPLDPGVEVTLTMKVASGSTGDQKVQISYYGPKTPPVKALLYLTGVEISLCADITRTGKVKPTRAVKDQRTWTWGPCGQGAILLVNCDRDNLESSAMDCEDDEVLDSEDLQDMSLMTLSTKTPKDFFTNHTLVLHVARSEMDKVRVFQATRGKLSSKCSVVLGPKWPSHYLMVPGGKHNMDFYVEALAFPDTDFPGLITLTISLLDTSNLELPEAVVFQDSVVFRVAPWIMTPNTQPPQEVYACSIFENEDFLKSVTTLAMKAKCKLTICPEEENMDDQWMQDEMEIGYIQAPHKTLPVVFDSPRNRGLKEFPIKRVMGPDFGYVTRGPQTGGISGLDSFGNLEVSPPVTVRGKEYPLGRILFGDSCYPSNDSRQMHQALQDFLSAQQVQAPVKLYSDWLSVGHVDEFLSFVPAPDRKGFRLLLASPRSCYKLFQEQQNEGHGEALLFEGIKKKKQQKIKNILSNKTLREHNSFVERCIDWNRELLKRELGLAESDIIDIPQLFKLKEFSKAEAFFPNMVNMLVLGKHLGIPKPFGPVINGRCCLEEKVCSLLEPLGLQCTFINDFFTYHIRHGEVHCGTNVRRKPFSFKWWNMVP
Procedure: Single cycle kinetics analysis by SPR was carried out using a Biacore T200 or S200 and a Biotin CAPture kit, series S (Cytiva). […] 50 mM HEPES (pH 7.5), 150 mM NaCl, 2 mM DTT, 0.05 % Tween-20, 0.1% DMSO and variable CaCl2 (as specified) was used as the running buffer and experiments performed at 25 °C.
Samples were run with 120 s contact time, and variable dissociation time (often 360 s). Data were analysed using the Biacore T200 analysis software; data was fitted to a 1:1 binding model accounting for baseline drift where necessary. Data are presented as the average ± standard deviation of at least two independent replicates.

[3] = tested on: human neutrophils; assay: Time-lapse imaging and NET quantification (NETosis); type: cell-based
Procedure: as §1
About 5 × 10^4 human neutrophils were seeded in a black 96-well plate (PerkinElmer) in HyClone HBSS +Ca, +Mg, - Phenol red (GE Healthcare) containing 10 mM HEPES (Invitrogen). Cells were pre-incubated with the corresponding peptide for 60 min prior to the start of the experiment. DNA of live cells was stained with 4 µg/mL Hoechst (membrane permeable; Thermo Scientific) and DNA from dead cells with 0.2 µM Sytox-green (membrane impermeable; Invitrogen). Cells were stimulated with 100 nM PMA, 5 µM Ca-Ionophore or 0.1 mg/mL cholesterol crystals at the start of the microscope acquisition. Plates stimulated with cholesterol crystals were centrifuged at 300×g for 5 min at RT immediately prior to microscope acquisition. The cells were imaged on an inverted Nikon wide-field microscope system at 37 °C and CO2 (5%). Four fields of view were acquired per well every 15 mins for 10–15 h using a 40x objective. NETs were differentiated from necrotic cells by the size of the sytox signal using FIJI[86]. […] [85]. Area measurements were distributed into bins of increasing area sizes and plotted as a percentage of the total number of Sytox-green positive (dead) cells.

[4] = target: T2, hPADI4 (Homo sapiens, UniProt Q9UM07); assay: COLDER assay, inhibition of PADI4 at 10 mM CaCl2 (substrate BAEE); type: biochemical
T2 construct: PADI4 (residues 1–663); Avi-Tag (unbiotinylated); made in house; host or cells: E. coli BL21(DE3) without BirA
T2 sequence (Q9UM07 whole entry, the tested form may be a part): as above
Procedure: PADI4 activity was assessed using the COLDER assay[43] that measures the formation of urea-containing compounds (e.g. citrulline). The reaction was carried out in a 96-well plate with a final volume of 50 µl. His-PADI4 (50 nM) was incubated with different concentrations of peptides (100 µM to 0.3 nM) in the presence of CaCl2 (from 10 mM to 0.001 mM as specified) for 10 min. The reaction was started by the addition of 10 mM N^α-Benzoyl-L-arginine ethyl ester hydrochloride (BAEE, Merck). After 30 min, the reaction was quenched with EDTA (50 mM final concentration). For colour development, 200 µl of COLDER solution, consisting of 1 volume of solution A (80 mM diacetyl monoxime/2,3-butanedione monoxime (Merck) and 2 mM thiosemicarbazide (Acros Organics)) and 3 volumes of solution B (3 M H3PO4, 6 M H2SO4 and 2 mM NH4Fe(SO4)2) were added to each well and the mixture was heated at 95 °C for 15 min. After cooling to RT, absorbance at 540 nm was measured, and citrulline concentration was determined using a standard curve of citrulline standards. All studies were performed within the linear range of PADI4 activity, and data analysis was performed using Prism GraphPad (Dotmatics). Data are presented as the average ± standard error of the mean from at least two independent replicates.

[5] = DNA area (μm) 1500, replicate 1
[6] = DNA area (μm) 1500, replicate 2
[7] = DNA area (μm) 1500, replicate 4

Structure (SMILES): N=C(N)NCCC[C@@H]1NC(=O)[C@H](CC(=O)O)NC(=O)[C@@H](Cc2ccc(O)cc2)NC(=O)CSC[C@@H](C(=O)NCC(N)=O)NC(=O)[C@H](Cc2ccc(O)cc2)NC(=O)[C@H](CCCCN)NC(=O)[C@@H]2CCCN2C(=O)[C@H](Cc2c[nH]cn2)NC(=O)[C@H](CCCNC(=N)N)NC(=O)[C@H](Cc2ccc(O)cc2)NC(=O)[C@H](Cc2c[nH]cn2)NC(=O)[C@H](Cc2c[nH]cn2)NC1=O [PADI4-3i] ({CH2CO}-[dY]DRHHYRHPKYCG-NH2; thioether N-12)
- Figure 3G quantification in Ca-I stimulated neutrophils (citrullinated H3 immunostaining) ([1]; replicate 1 (first data row)): 33.3333
- Figure 3G quantification in Ca-I stimulated neutrophils (citrullinated H3 immunostaining) ([1]; replicate 2 (second data row)): 50
- Figure 3G quantification in Ca-I stimulated neutrophils (citrullinated H3 immunostaining) ([1]; replicate 3 (third data row)): 41.6667
- Figure 3G quantification in Ca-I stimulated neutrophils (citrullinated H3 immunostaining) ([1]; replicate 4 (fourth data row)): 50

Structure (SMILES): CC(C)C[C@H](NC(=O)[C@H](CCC(N)=O)NC(=O)[C@H](CC(C)C)NC(=O)[C@@H](NC(=O)[C@H](C)NC(=O)[C@H](CCCNC(=N)N)NC(=O)[C@H](Cc1ccc(O)cc1)NC(=O)[C@H](CCCNC(=N)N)NC(=O)[C@@H]1CSCC(=O)N[C@@H](Cc2ccc(O)cc2)C(=O)N[C@@H](CCC(=O)O)C(=O)N[C@@H](CO)C(=O)N1)C(C)C)C(N)=O [Q8A] ({CH2CO}-YESCRYRAVLQL-NH2; thioether N-4)
- Kd ([2]; Fig. 5D, mean ± SEM of three independent repeats, read-out: KD (µM) of PADI4_11 analogues): 0.5 ± 0.3 µM

Structure (SMILES): N=C(N)NCCC[C@@H]1NC(=O)[C@H](CC(=O)O)NC(=O)[C@@H](Cc2ccc(O)cc2)NC(=O)CSC[C@@H](C(=O)NCC(N)=O)NC(=O)[C@H](Cc2ccc(O)cc2)NC(=O)[C@H](CCCCN)NC(=O)[C@@H]2CCCN2C(=O)[C@H](Cc2c[nH]cn2)NC(=O)[C@H](CCCNC(=N)N)NC(=O)[C@H](Cc2ccc(O)cc2)NC(=O)[C@H](Cc2c[nH]cn2)NC(=O)[C@H](Cc2c[nH]cn2)NC1=O [PAD4-3inv] ({CH2CO}-[dY]DRHHYRHPKYCG-NH2; thioether N-12)
- share per DNA area bin ([3]; DNA area (μm) 150, replicate 1): 64
- share per DNA area bin ([3]; DNA area (μm) 150, replicate 2): 52.1739
- share per DNA area bin ([3]; DNA area (μm) 150, replicate 3): 52.1739
- share per DNA area bin ([3]; DNA area (μm) 150, replicate 4): 45.1613
- share per DNA area bin ([3]; DNA area (μm) 250, replicate 1): 20
- share per DNA area bin ([3]; DNA area (μm) 250, replicate 2): 0
- share per DNA area bin ([3]; DNA area (μm) 250, replicate 3): 17.3913
- share per DNA area bin ([3]; DNA area (μm) 250, replicate 4): 22.5806
- share per DNA area bin ([3]; DNA area (μm) 750, replicate 1): 16
- share per DNA area bin ([3]; DNA area (μm) 750, replicate 2): 47.8261
- share per DNA area bin ([3]; DNA area (μm) 750, replicate 3): 30.4348
- share per DNA area bin ([3]; DNA area (μm) 750, replicate 4): 29.0323
- share per DNA area bin [3, 5]: 0
- share per DNA area bin [3, 6]: 0
- share per DNA area bin [3, 7]: 3.2258

Structure (SMILES): N=C(N)NCCC[C@@H]1NC(=O)[C@@H](Cc2ccc(O)cc2)NC(=O)CSC[C@@H](C(=O)NCC(N)=O)NC(=O)[C@H](Cc2ccc(O)cc2)NC(=O)[C@H](CCCCN)NC(=O)[C@@H]2CCCN2C(=O)[C@H](Cc2c[nH]cn2)NC(=O)[C@H](Cc2c[nH]c3ccccc23)NC(=O)[C@H](Cc2ccc(O)cc2)NC(=O)[C@H](Cc2c[nH]cn2)NC(=O)[C@H](Cc2c[nH]cn2)NC(=O)[C@H](CC(=O)O)NC1=O [PADI4_3.20] ({CH2CO}-[dY]RDHHYWHPKYCG-NH2; thioether N-12)
- IC50 ([4]; COLDER inhibition assay, mean of the 3 experiments printed beside it (stdev in a separate column), read-out: IC50): 79.1 nM

Structure (SMILES): N=C(N)NCCC[C@@H]1NC(=O)[C@@H](Cc2ccc(O)cc2)NC(=O)CSC[C@@H](C(=O)NCC(N)=O)NC(=O)[C@H](Cc2ccc(O)cc2)NC(=O)[C@H](CCCCN)NC(=O)[C@@H]2CCCN2C(=O)[C@H](Cc2c[nH]cn2)NC(=O)[C@H](CCCNC(N)=O)NC(=O)[C@H](Cc2ccc(O)cc2)NC(=O)[C@H](Cc2c[nH]cn2)NC(=O)[C@H](Cc2c[nH]cn2)NC(=O)[C@H](CC(=O)O)NC1=O [PADI4_3.R7Cit] ({CH2CO}-[dY]RDHHY[Cit]HPKYCG-NH2; thioether N-12)
- IC50 ([4]; average of 3 replicates (Stdev in separate column), COLDER assay, 10 mM CaCl2, substrate BAEE, source data of Figure 2F, read-out: IC50s Average): 83.2 nM

Structure (SMILES): CC[C@H](C)[C@@H]1NC(=O)[C@H](CC(C)C)NC(=O)[C@H](Cc2c[nH]c3ccccc23)NC(=O)[C@@H]2CCCN2C(=O)[C@H]([C@@H](C)O)NC(=O)[C@H](C)NC(=O)[C@@H](Cc2ccc(O)cc2)NC(=O)CSC[C@@H](C(=O)NCC(N)=O)NC(=O)[C@H](CC(C)C)NC(=O)[C@H](C(C)C)NC(=O)[C@H](C(C)C)NC1=O [PADI4_5] ({CH2CO}-[dY]ATPWLIVVLCG-NH2; thioether N-11)
- Kd ([2]; 0 mM CaCl2, 25 °C, read-out: KD 0 mM CaCl2, bound printed in µM): > 2 µM
- Kd ([2]; 10 mM CaCl2, PADI4 active site blocked with Cl-amidine, 25 °C, read-out: KD 10 mM CaCl2 + Cl-amidine, bound given in µM): > 2 µM
- Kd ([2]; 10 mM CaCl2 in running buffer, 25 °C, read-out: KD 10 mM CaCl2, bound printed in µM): > 2 µM

Structure (SMILES): N=C(N)NCCC[C@@H]1NC(=O)[C@H](Cc2ccc(O)cc2)NC(=O)[C@H](Cc2c[nH]cn2)NC(=O)[C@H](Cc2c[nH]cn2)NC(=O)[C@H](CC(=O)O)NC(=O)[C@H](CCCNC(=N)N)NC(=O)[C@@H](Cc2ccc(O)cc2)NC(=O)CSC[C@@H](C(=O)NCC(N)=O)NC(=O)[C@H](Cc2ccc(O)cc2)NC(=O)[C@H](CCCCN)NC(=O)[C@@H]2CCCN2C(=O)[C@H](Cc2c[nH]cn2)NC1=O [PAD4-3] ({CH2CO}-[dY]RDHHYRHPKYCG-NH2; thioether N-12)
- share per DNA area bin ([3]; DNA area (μm) 150, replicate 1): 61.7647
- share per DNA area bin ([3]; DNA area (μm) 150, replicate 2): 57.1429
- share per DNA area bin ([3]; DNA area (μm) 150, replicate 3): 62.8571
- share per DNA area bin ([3]; DNA area (μm) 150, replicate 4): 54.7619
- share per DNA area bin ([3]; DNA area (μm) 250, replicate 1): 14.7059
- share per DNA area bin ([3]; DNA area (μm) 250, replicate 2): 5.7143
- share per DNA area bin ([3]; DNA area (μm) 250, replicate 3): 5.7143
- share per DNA area bin ([3]; DNA area (μm) 250, replicate 4): 21.4286
- share per DNA area bin ([3]; DNA area (μm) 750, replicate 1): 23.5294
- share per DNA area bin ([3]; DNA area (μm) 750, replicate 2): 37.1429
- share per DNA area bin ([3]; DNA area (μm) 750, replicate 3): 31.4286
- share per DNA area bin ([3]; DNA area (μm) 750, replicate 4): 23.8095
- share per DNA area bin [3, 5]: 0
- share per DNA area bin [3, 6]: 0
- share per DNA area bin ([3]; DNA area (μm) 1500, replicate 3): 0
- share per DNA area bin [3, 7]: 0
